In PubChem BioAssay (NCI):
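The compound was tested at five concentrations on cells cultured in 96-well plates, with a 48-hour exposure period. TGI marks complete inhibition of growth.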

Assays:
Assay in all cases: NCI-60 cell line screen, 48 h
M19-MEL melanoma = test system: M19-MEL melanoma
HCT-15 colon = test system: HCT-15 colon
SF-539 CNS = test system: SF-539 CNS
NCI-H226 lung = test system: NCI-H226 lung
SNB-78 CNS = test system: SNB-78 CNS
KM20L2 colon = test system: KM20L2 colon
M14 melanoma = test system: M14 melanoma
SK-OV-3 ovarian = test system: SK-OV-3 ovarian
RXF 393 renal = test system: RXF 393 renal
SNB-19 CNS = test system: SNB-19 CNS
ACHN renal = test system: ACHN renal
CAKI-1 renal = test system: CAKI-1 renal
RPMI-8226 leukemia = test system: RPMI-8226 leukemia
UACC-62 melanoma = test system: UACC-62 melanoma
SN12C renal = test system: SN12C renal
HCT-116 colon = test system: HCT-116 colon
HOP-18 NSCLC = test system: HOP-18 NSCLC
SF-295 CNS = test system: SF-295 CNS
UACC-257 melanoma = test system: UACC-257 melanoma
DMS 114 small cell lung = test system: DMS 114 small cell lung
SNB-75 CNS = test system: SNB-75 CNS
COLO 205 colon = test system: COLO 205 colon
HOP-62 NSCLC = test system: HOP-62 NSCLC
A549 NSCLC = test system: A549 NSCLC
U251 CNS = test system: U251 CNS
HCC-2998 colon = test system: HCC-2998 colon
SK-MEL-5 melanoma = test system: SK-MEL-5 melanoma
MOLT-4 leukemia = test system: MOLT-4 leukemia
LOX IMVI melanoma = test system: LOX IMVI melanoma
TK-10 renal = test system: TK-10 renal
DMS 273 small cell lung = test system: DMS 273 small cell lung
HOP-92 NSCLC = test system: HOP-92 NSCLC
HT29 colon = test system: HT29 colon
LXFL 529 NSCLC = test system: LXFL 529 NSCLC
KM12 colon = test system: KM12 colon
UO-31 renal = test system: UO-31 renal
SK-MEL-28 melanoma = test system: SK-MEL-28 melanoma
SR leukemia = test system: SR leukemia
NCI-H460 lung = test system: NCI-H460 lung
EKVX NSCLC = test system: EKVX NSCLC
A498 renal = test system: A498 renal
MALME-3M melanoma = test system: MALME-3M melanoma
SF-268 CNS = test system: SF-268 CNS
IGROV1 ovarian = test system: IGROV1 ovarian
OVCAR-5 ovarian = test system: OVCAR-5 ovarian
SW-620 colon = test system: SW-620 colon
OVCAR-4 ovarian = test system: OVCAR-4 ovarian
NCI-H23 lung = test system: NCI-H23 lung
DLD-1 colon = test system: DLD-1 colon
OVCAR-8 ovarian = test system: OVCAR-8 ovarian
SK-MEL-2 melanoma = test system: SK-MEL-2 melanoma
CCRF-CEM leukemia = test system: CCRF-CEM leukemia
HL-60(TB) leukemia = test system: HL-60(TB) leukemia
K-562 leukemia = test system: K-562 leukemia
XF 498 CNS = test system: XF 498 CNS
786-0 renal = test system: 786-0 renal
NCI-H522 lung = test system: NCI-H522 lung
OVCAR-3 ovarian = test system: OVCAR-3 ovarian
RXF-631 renal = test system: RXF-631 renal

Measured: TGI

Cn1cnc([N+](=O)[O-])c1Sc1nc2cc(Cl)c(F)cc2[nH]1
22.4 µM: SW-620 colon
17.6 µM: HCT-15 colon
20.7 µM: DMS 114 small cell lung | HCC-2998 colon
23.9 µM: M19-MEL melanoma
36.6 µM: KM12 colon
6.29 µM: MOLT-4 leukemia
33 µM: NCI-H226 lung | TK-10 renal
39.7 µM: LOX IMVI melanoma
47.3 µM: HT29 colon
54.3 µM: A549 NSCLC
12.4 µM: SR leukemia
28.6 µM: UACC-62 melanoma
9.93 µM: RXF 393 renal
23.2 µM: OVCAR-8 ovarian
16.7 µM: SF-539 CNS
20.6 µM: HCT-116 colon
14.4 µM: CAKI-1 renal
28.9 µM: HOP-92 NSCLC
29.5 µM: SF-268 CNS
> 100 µM: SNB-19 CNS | SF-295 CNS | HOP-62 NSCLC | OVCAR-5 ovarian
19.2 µM: LXFL 529 NSCLC
26.9 µM: KM20L2 colon
22 µM: COLO 205 colon
40.3 µM: RPMI-8226 leukemia
29 µM: HOP-18 NSCLC
17.2 µM: DMS 273 small cell lung
29.7 µM: SN12C renal
22.7 µM: DLD-1 colon
39.3 µM: SNB-75 CNS
21 µM: OVCAR-4 ovarian
27.7 µM: NCI-H460 lung
25.2 µM: UACC-257 melanoma
16.5 µM: EKVX NSCLC
61.9 µM: SK-OV-3 ovarian
34.1 µM: ACHN renal
24 µM: U251 CNS | SK-MEL-5 melanoma
27.5 µM: MALME-3M melanoma
31.3 µM: NCI-H23 lung
35.8 µM: IGROV1 ovarian
27.3 µM: SK-MEL-28 melanoma
25.9 µM: SNB-78 CNS
27.6 µM: M14 melanoma | UO-31 renal
51 µM: A498 renal

O=C(CSc1nnc(-c2ccc(N=Cc3ccc(Cl)cc3)cc2)o1)Nc1ccccc1Cl
not listed: SF-539 CNS | CAKI-1 renal | SN12C renal | HCC-2998 colon | HOP-92 NSCLC | A498 renal | IGROV1 ovarian | OVCAR-5 ovarian | DLD-1 colon | OVCAR-3 ovarian | RXF-631 renal
> 100 µM: all other assays above

C[N+]1(C)CCCC1C(=O)[O-] (stereo unspecified)
not listed: CAKI-1 renal | SK-MEL-5 melanoma | OVCAR-5 ovarian | RXF-631 renal
> 100 µM: all other assays above

N#Cc1cccc(N2C(=O)c3c(c(-c4ccccc4)c(-c4ccc(Sc5ccc(-c6c(-c7ccccc7)c7c(c(-c8ccccc8)c6-c6ccccc6)C(=O)N(c6cccc(C#N)c6)C7=O)cc5)cc4)c(-c4ccccc4)c3-c3ccccc3)C2=O)c1
59.2 µM: RXF 393 renal
54.2 µM: U251 CNS
99.4 µM: HOP-92 NSCLC
85 µM: XF 498 CNS
not listed: M19-MEL melanoma | NCI-H226 lung | SK-OV-3 ovarian | CAKI-1 renal | HOP-18 NSCLC | SNB-75 CNS | SR leukemia | A498 renal
> 100 µM: all other assays above

CCOc1ccccc1NC(=O)CCC(=O)OC
> 78.8 µM: HL-60(TB) leukemia
> 66.7 µM: CCRF-CEM leukemia
> 71.1 µM: U251 CNS
> 71.3 µM: RPMI-8226 leukemia
> 87.8 µM: K-562 leukemia
> 31.6 µM: LOX IMVI melanoma
> 60.5 µM: SW-620 colon
not listed: SF-539 CNS | RXF-631 renal
> 100 µM: all other assays above

O=C(O)CN(c1ccccc1)S(=O)(=O)c1ccc(NC(=O)c2ccccc2)cc1
not listed: NCI-H226 lung | SNB-78 CNS | HCT-116 colon | SF-295 CNS | DMS 114 small cell lung | HOP-62 NSCLC | HCC-2998 colon | SK-MEL-5 melanoma | HT29 colon | KM12 colon | SR leukemia | OVCAR-3 ovarian | RXF-631 renal
> 100 µM: all other assays above

O=C(CC1=Nc2nnc(-c3nnc4n3C(=O)C(CC(=O)c3cccnc3)=N4)n2C1=O)c1cccnc1
not listed: HOP-18 NSCLC | SR leukemia | EKVX NSCLC | OVCAR-8 ovarian | XF 498 CNS
> 100 µM: all other assays above
